Experimental data taken from US4361515A, “Antihyperlipemic dihydro-ML-236B derivatives, their preparation and use” (Sankyo Company, Limited, priority 1980, dated 1982).

Legend:
[1] = test system: synthesis of cholesterol in a rat liver; experiment: Inhibitory activity against the biosynthesis of cholesterol in a rat liver; type: biochemical
Procedure: 10. Inhibitory activity against the biosynthesis of cholesterol: a 50% inhibition of the synthesis of cholesterol in a rat liver is observed at a concentration of 0.04 μg/ml.

[2] = Solubility in organic solvents; type: physicochemical
[3] = Toxicity in mice, intraperitoneal administration; conditions: mouse, in vivo, ip, read-out: dose at which mice survive

Row | SMILES | concentration at which a 50% inhibition of the synthesis of cholesterol is observed [1] | Solubility ([2]; benzene) | Solubility ([2]; hexane and petroleum ether) | Solubility ([2]; methanol, ethanol, acetone, ethyl acetate, chloroform and carbon tetrachloride) | MTD [3]
1 | CC1C=C2C=CC(C)C(CCC3CC(O)CC(=O)O3)C2C(O)C1 (centres unmarked) [MB-530A] | 0.04 µg/mL | soluble | insoluble | readily soluble | 
2 | CCC(C)C(=O)OC1CCC(O)C2=CC(O)C(C)C(CCC3CC(O)CC(=O)O3)C21 (centres unmarked) [3',5'-dihydroxy-(DH.ML-236B), 3',5'-Dihydroxy-(DH.ML-236B)] |  |  |  |  | ≤ 1 mg/kg
